Measured values: patent US7488736B2, “Thienopyridinone compounds and methods of treatment” (Epix Delaware, Inc., priority 2004, dated 2009)
pKi: −log10 of the molar value. Counter-ions that a name gives are not always drawn.

molecular target: h 5-HT4e Receptor (Homo sapiens, UniProt Q13639); assay: h 5-HT4e receptor binding affinity assay; conditions: not given
Sequence (Q13639 1-378 isoform Q13639-5): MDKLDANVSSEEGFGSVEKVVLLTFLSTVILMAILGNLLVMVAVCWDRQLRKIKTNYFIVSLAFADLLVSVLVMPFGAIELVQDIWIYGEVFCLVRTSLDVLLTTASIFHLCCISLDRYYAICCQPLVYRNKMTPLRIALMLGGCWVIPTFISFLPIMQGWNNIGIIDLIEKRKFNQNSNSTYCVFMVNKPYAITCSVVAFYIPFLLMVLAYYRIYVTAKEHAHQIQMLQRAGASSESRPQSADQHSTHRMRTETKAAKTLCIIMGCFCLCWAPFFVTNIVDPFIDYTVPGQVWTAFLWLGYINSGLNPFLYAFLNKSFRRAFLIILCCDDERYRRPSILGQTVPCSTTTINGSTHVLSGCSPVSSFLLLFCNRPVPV

Structure (SMILES)	pKi
CC(C)Cn1c(=O)c(C(=O)NCCCN2CCCCC2)c(O)c2ccsc21 [Compound 1, 6,7-Dihydro-4-hydroxy-7-isobutyl-6-oxo-N-(3-(piperidin-1-yl)propyl)thieno[2,3-b]pyridine-5-carboxamide hydrochloride salt]	6.92
CCCn1c(=O)c(C(=O)NCCCN2CCC(C)CC2)c(O)c2ccsc21 [Compound 2, 6,7-Dihydro-4-hydroxy-N-(3-(4-methylpiperidin-1-yl)propyl)-6-oxo-7-propylthieno[2,3-b]pyridine-5-carboxamide hydrochloride salt]	6.80
CCn1c(=O)c(C(=O)NCCCN2CCC(C)CC2)c(O)c2ccsc21 [Compound 4, 6,7-Dihydro-7-ethyl-4-hydroxy-N-(3-(4-methylpiperidin-1-yl)propyl)-6-oxothieno[2,3-b]pyridine-5-carboxamide hydrochloride salt]	7.70
CCC1CCN(CCCNC(=O)c2c(O)c3ccsc3n(CC)c2=O)CC1 [Compound 5, 6,7-Dihydro-7-ethyl-N-(3-(4-ethylpiperidin-1-yl)propyl)-4-hydroxy-6-oxothieno[2,3-b]pyridine-5-carboxamide hydrochloride salt]	7.59
CC(C)n1c(=O)c(C(=O)NCCCN2CCCC2)c(O)c2ccsc21 [Compound 6, 6,7-Dihydro-4-hydroxy-7-isopropyl-6-oxo-N-(3-(pyrrolidin-1-yl)propyl)thieno-[2,3-b]pyridine-5-carboxamide hydrochloride salt]	7.46
CC(C)n1c(=O)c(C(=O)NCCCN2CCC(C)(C)CC2)c(O)c2ccsc21 [Compound 12, 6,7-Dihydro-N-(3-(4,4-dimethylpiperidin-1-yl)propyl)-4-hydroxy-7-isopropyl-6-oxothieno[2,3-b]pyridine-5-carboxamide hydrochloride salt]	6.70
CC(C)n1c(=O)c(C(=O)NCCCN2[C@H](C)CCC[C@@H]2C)c(O)c2ccsc21 [Compound 13, 6,7-Dihydro-N-(3-((2R,6S)-2,6-dimethylpiperidin-1-yl)propyl)-4-hydroxy-7-isopropyl-6-oxothieno[2,3-b]pyridine-5-carboxamide hydrochloride salt]	6.42

More lines, now with the values ahead:

pKi	Structure (SMILES)
7.44	CCn1c(=O)c(C(=O)NCCCN2CCCCC2)c(O)c2ccsc21 [Compound 3, 6,7-Dihydro-7-ethyl-4-hydroxy-6-oxo-N-(3-(piperidin-1-yl)propyl)thieno[2,3-b]pyridine-5-carboxamide hydrochloride salt]
7.19	CC1CCN(CCCNC(=O)c2c(O)c3ccsc3n(C(C)C)c2=O)CC1 [Compound 8, 6,7-Dihydro-4-hydroxy-7-isopropyl-N-(3-(4-methylpiperidin-1-yl)propyl)-6-oxothieno[2,3-b]pyridine-5-carboxamide hydrochloride salt]
7.30	CC(C)n1c(=O)c(C(=O)NCCCN2CCC(C(F)(F)F)CC2)c(O)c2ccsc21 [Compound 9, 6,7-Dihydro-4-hydroxy-7-isopropyl-6-oxo-N-(3-(4-(trifluoromethyl)piperidin-1-yl)propyl)thieno[2,3-b]pyridine-5-carboxamide hydrochloride salt]
7.40	COC(=O)C1CCN(CCCNC(=O)c2c(O)c3ccsc3n(C(C)C)c2=O)CC1 [Compound 10, 6,7-Dihydro-4-hydroxy-7-isopropyl-6-oxo-N-(3-(4-(methoxycarbonyl)piperidin-1-yl)propyl)thieno[2,3-b]pyridine-5-carboxamide hydrochloride salt]
6.66	CC(C)n1c(=O)c(C(=O)NCCCN2CCC(F)(F)CC2)c(O)c2ccsc21 [Compound 11, N-(3-(4,4-Difluoropiperidin-1-yl)propyl)-6,7-dihydro-4-hydroxy-7-isopropyl-6-oxothieno[2,3-b]pyridine-5-carboxamide hydrochloride salt]
6.85	Cc1sc2c(c1C)c(O)c(C(=O)NCCCN1CCCCC1)c(=O)n2C(C)C [Compound 14, 6,7-Dihydro-2,3-dimethyl-4-hydroxy-7-isopropyl-6-oxo-N-(3-(piperidin-1-yl)propyl)thieno-[2,3-b]pyridine-5-carboxamide hydrochloride salt]
7.51	COc1c(C(=O)NCCCN2CCCCC2)c(=O)n(C(C)C)c2sccc12 [Compound 16, 6,7-Dihydro-7-isopropyl-4-methoxy-6-oxo-N-(3-(piperidin-1-yl)propyl)thieno[2,3-b]pyridine-5-carboxamide]

test system: rats; assay: Reversal of the scopolamine-induced deficit of Morris water maze performance; type: in vivo, rat; conditions: scopolamine 1 mg/kg i.p., compound at both 15 mg/kg and 30 mg/kg p.o.
Excerpt: Reversal of the Scopolamine-Induced Deficit of Water Maze Performance in Rats
The Morris Water Maze test is commonly used to study hippocampal-dependent spatial memory acquisition. It consists of a water pool with a hidden escape platform where the rats must learn the location of the platform using either contextual or local cues. […] Lesions of the hippocampus or its cholinergic input impair performance (e.g., by scopolamine) by inducing a performance deficit (latency or time to reach the platform location) in this test without affecting the speed of swimming or other general behaviors in the test animals.

Structure (SMILES)	decrease in path length to reach the platform	decrease in time to reach the platform
CC(C)n1c(=O)c(C(=O)NCCCN2CCCCC2)c([O-])c2ccsc21.[K+] [Compound 23, 6,7-Dihydro-4-hydroxy-7-isopropyl-6-oxo-N-(3-(piperidin-1-yl)propyl)thieno[2,3-b]pyridine-5-carboxamide potassium salt]	35-55%	25-30%

same assay, conditions: scopolamine pretreatment 1 mg/kg i.p.

Structure (SMILES)	increase in latency and path length to find the platform compared with vehicle treated rats [fold]
CN1[C@@H]2C[C@@H](OC(=O)[C@H](CO)c3ccccc3)C[C@H]1[C@@H]1O[C@@H]12 [scopolamine, reference compound]	~5

test system: rats; assay: Spontaneous alternation task (cross maze), spatial working memory; type: in vivo, rat; parameters: number of arm entries: unit not given here; conditions: 5 mg/kg i.p., 12 minutes on cross maze
Excerpt: Effect of Compound 23 on Spatial Working Memory in the Spontaneous Alternation Task Performance in Rats
Rats have an innate tendency to explore their environment in a systematic way. That is, if a rat chose a certain arm on the first trial in a maze, there is high probability that it will choose a different arm on the second trial. […] The performance in the spontaneous alternation test is highly dependent on spatial working memory capacity and rats with compromised “working memory” cannot retain information regarding places just visited in memory; therefore they show decreased spontaneous alternation. In this study, rats were tested for spontaneous alternation performance on the cross maze. Rats were allowed to explore the maze freely for 12 minutes. An alternation was recorded if a rat entered all four arms within a series of four consecutive entries. Chance performance is 22.5% with this measure.

Structure (SMILES)	number of arm entries
CC(C)n1c(=O)c(C(=O)NCCCN2CCCCC2)c([O-])c2ccsc21.[K+] [Compound 23, 6,7-Dihydro-4-hydroxy-7-isopropyl-6-oxo-N-(3-(piperidin-1-yl)propyl)thieno[2,3-b]pyridine-5-carboxamide potassium salt]	30

same assay, conditions: 5 mg/kg i.p., 12 minutes on cross maze, chance performance 22.5%

Structure (SMILES)	mean alternation score
CC(C)n1c(=O)c(C(=O)NCCCN2CCCCC2)c([O-])c2ccsc21.[K+] [Compound 23, 6,7-Dihydro-4-hydroxy-7-isopropyl-6-oxo-N-(3-(piperidin-1-yl)propyl)thieno[2,3-b]pyridine-5-carboxamide potassium salt]	58%±3%
